Experiments:
[1] = system: BJAB Burkitt lymphoma-derived B-cell; experiment: Tumor growth inhibition, BJAB xenograft; type: in vivo, athymic nude mice; details: qd, intraperitoneal
Description: (§1) An in vivo study was conducted to evaluate the efficacy of compounds of Formula (I) in suppressing tumor growth in multiple human cancer types.
(§2) Eight-week-old athymic nude mice were group-housed under conditions of constant photoperiod (12 h light/12 h dark at 21-23° C. and 60-85% humidity) with ad libitum access to sterilized food and water. All animal experiments followed ethical standards, and protocols were reviewed and approved by the Animal Use and Management Committee of National Taiwan University. Each mouse was inoculated subcutaneously with 1×10^6˜1×10^7 human cancer cells in a total volume of 0.1 mL serum-free medium containing 50% Matrigel (BD Biosciences). As tumors became established (˜100 mm^3), mice were randomized to various groups to be treated with pre-determined materials (n=6-8/group): (i) control group: 0.5% DMSO/0.5% Cremophor/90% D5W and (ii) treatment groups: Compounds 12 and 28 at pre-determined doses daily. Mice received treatment by intraperitoneal injection for the duration of the study. Tumors were measured weekly using calipers. Tumor size, in mm^3, was calculated according to the formula: Tumor volume=(w^2×l)/2, where w and 1 respectively represent the width and length (both in mm) of the tumor.

[2] = system: RPMI-8226 Multiple myeloma; experiment: Tumor growth inhibition, RPMI-8226 xenograft; type: in vivo, athymic nude mice; details: 50 mg/kg, qd
Description: as §1, §2

MDA-MB-231 Breast = experiment: Tumor growth inhibition, MDA-MB-231 xenograft; type: in vivo, athymic nude mice; details: qd, intraperitoneal
Description: as §1, §2

[3] = Safety in ICR mice, 7-day intraperitoneal dosing; type: in vivo; details: 50, 100, and 200 mg/kg intraperitoneally once a day for 7 days, monitored another 7 days
Description: In addition, both Compounds 12 and 28 were studied to evaluate their safety in animals.
[…]. The animals were dosed intraperitoneally once a day for 7 days and then monitored for another 7 days. The animals were weighed daily for 1 week and then twice weekly.

[4] = system: scopolamine-induced memory deficit; experiment: Elevated plus maze test, scopolamine-treated rats; type: in vivo; details: gavage twice daily for seven days; scopolamine 1.5 mg/kg i.p.
Description: An in vivo study was conducted to evaluate the efficacy of compounds of Formula (I) in improving memory deficits associated with Alzheimer's disease. Compound 12, Compound 28, suberanilohydroxamic acid (50 mg/kg) or vehicle was given to rats by gavage twice daily for seven days prior to behavioral experiments. On the day conducting a behavior assessment, rats in all groups except the control group were administered scopolamine (1.5 mg/kg) by intraperitoneal injection for 30 minutes before the assessment, then a water maze test or an elevated plus maze test was performed. […] The significant reduction in transfer latency time indicated improvement in memory.

[5] = system: scopolamine-induced memory deficit; experiment: Water maze test, scopolamine-treated rats; type: in vivo; details: gavage twice daily for seven days; scopolamine 1.5 mg/kg i.p.
Description: An in vivo study was conducted to evaluate the efficacy of compounds of Formula (I) in improving memory deficits associated with Alzheimer's disease.
Compound 12, Compound 28, suberanilohydroxamic acid (50 mg/kg) or vehicle was given to rats by gavage twice daily for seven days prior to behavioral experiments. On the day conducting a behavior assessment, rats in all groups except the control group were administered scopolamine (1.5 mg/kg) by intraperitoneal injection for 30 minutes before the assessment, then a water maze test or an elevated plus maze test was performed.

[6] = system: acetyl-a-tubuline expression in RPMI8226, U266, and NCI-H929; experiment: Acetyl-a-tubuline expression in multiple myeloma cell lines (immunoblotting); type: cell-based, human
Description: A study was conducted to evaluate the activity of a compound of Formula (I) in increasing acetyl-a-tubuline expression in human multiple myeloma cell lines (RPMI8226, U266, and NCI-H929).
Cells (1×10^6) were incubated for 10 minutes at 4° C. in a lysis buffer solution in a culture vessel, and then scraped off the culture vessel, incubated on ice for another 10 minutes, and centrifuged at 17,000×g for 30 minutes at 4° C. Protein samples (80 μg) were electrophoresed on SDS gels and transferred onto a nitrocellulose membrane, which was blocked by incubation with 5% fat-free milk in phosphate-buffered saline (PBS) for 30 minutes at room temperature. Immunoblotting was performed by overnight incubation at 4° C. with primary antibodies in PBS, followed by incubation for 1 hour at room temperature with horseradish peroxidase (HRP)-conjugated secondary antibodies, then bound antibodies were measured using enhanced chemiluminescence (ECL) reagent (Advansta Corp., Menlo Park, Calif., USA) and exposure to photographic film.
The study was performed according to the protocol reported in Yang et al., Journal of Molecular Medicine, 2014, November; 92(11):1147-1158.

[7] = system: RPMI8226, U266, and NCI-H929 multiple myeloma cell lines; experiment: Apoptosis in multiple myeloma cells, combined with bortezomib (propidium iodide, FACScan); type: cell-based, human; details: 24 hours
Description: A study was conducted to evaluate the effect of a compound of Formula (I) combined with bortezomib in inducing apoptosis in multiple myeloma cells.
To detect cell cycle progression, cells were incubated with or without the indicated agent for 24 hours, washed twice with ice-cold PBS, collected by centrifugation, and fixed in 70% (v/v) ethanol for 2 hours at −20° C. They were subsequently incubated for 30 minutes at room temperature with 0.2 mL of deoxyribonucleic acid (DNA) extraction buffer (0.2 M Na2HPO4 and 0.1 M citric acid buffer, pH 7.8), re-suspended in 1 mL of propidium iodide staining buffer (0.1% Triton X-100, 100 μg/mL of RNase A, and 80 μg/mL of propidium iodide in PBS), incubated at 37° C. for 30 minutes in darkness, sorted by FACScan, and analyzed using CellQuest software (BD Biosciences).
The study was performed according to the protocol reported in Hsieh et al., Cell Death and Disease, 2014, April; 5:e1166.

HDAC6-dynein binding = biological target: T1, HDAC6-dynein binding (Homo sapiens, UniProt Q9UBN7); experiment: HDAC6-dynein binding (immunoprecipitation, immunoblotting); type: cell-based; details: dose-dependent
T1 construct: endogenous in cells
Description: (§3) A study was conducted to evaluate the activity of a compound of Formula (I) in inhibiting HDAC6-dynein binding and inducing accumulation of polyubiquited proteins.
(§4) Cell lysates were immunoprecipitated overnight at 4° C. with 1 μg of dynein antibody and A/G-agarose beads. The precipitated beads were washed three times with 1 mL of an ice-cold cell lysis buffer solution. The resulting immune complex was resolved by 10% SDS-PAGE gel electrophoresis, followed by immunoblotting assay using anti-HDAC6 Ab.
(§5) The study was performed according to the protocol reported in Chen et al., Journal of Immunology, 2008, 181(12):8441-8449.

polyubiquited proteins = experiment: Accumulation of polyubiquited proteins; type: cell-based; details: dose-dependent
Description: as §3, §4, §5

HCT116 Colorectal = experiment: Tumor growth inhibition, HCT116 xenograft; type: in vivo, athymic nude mice; details: qd, intraperitoneal
Description: as §1, §2

T1 sequence (Q9UBN7 whole entry): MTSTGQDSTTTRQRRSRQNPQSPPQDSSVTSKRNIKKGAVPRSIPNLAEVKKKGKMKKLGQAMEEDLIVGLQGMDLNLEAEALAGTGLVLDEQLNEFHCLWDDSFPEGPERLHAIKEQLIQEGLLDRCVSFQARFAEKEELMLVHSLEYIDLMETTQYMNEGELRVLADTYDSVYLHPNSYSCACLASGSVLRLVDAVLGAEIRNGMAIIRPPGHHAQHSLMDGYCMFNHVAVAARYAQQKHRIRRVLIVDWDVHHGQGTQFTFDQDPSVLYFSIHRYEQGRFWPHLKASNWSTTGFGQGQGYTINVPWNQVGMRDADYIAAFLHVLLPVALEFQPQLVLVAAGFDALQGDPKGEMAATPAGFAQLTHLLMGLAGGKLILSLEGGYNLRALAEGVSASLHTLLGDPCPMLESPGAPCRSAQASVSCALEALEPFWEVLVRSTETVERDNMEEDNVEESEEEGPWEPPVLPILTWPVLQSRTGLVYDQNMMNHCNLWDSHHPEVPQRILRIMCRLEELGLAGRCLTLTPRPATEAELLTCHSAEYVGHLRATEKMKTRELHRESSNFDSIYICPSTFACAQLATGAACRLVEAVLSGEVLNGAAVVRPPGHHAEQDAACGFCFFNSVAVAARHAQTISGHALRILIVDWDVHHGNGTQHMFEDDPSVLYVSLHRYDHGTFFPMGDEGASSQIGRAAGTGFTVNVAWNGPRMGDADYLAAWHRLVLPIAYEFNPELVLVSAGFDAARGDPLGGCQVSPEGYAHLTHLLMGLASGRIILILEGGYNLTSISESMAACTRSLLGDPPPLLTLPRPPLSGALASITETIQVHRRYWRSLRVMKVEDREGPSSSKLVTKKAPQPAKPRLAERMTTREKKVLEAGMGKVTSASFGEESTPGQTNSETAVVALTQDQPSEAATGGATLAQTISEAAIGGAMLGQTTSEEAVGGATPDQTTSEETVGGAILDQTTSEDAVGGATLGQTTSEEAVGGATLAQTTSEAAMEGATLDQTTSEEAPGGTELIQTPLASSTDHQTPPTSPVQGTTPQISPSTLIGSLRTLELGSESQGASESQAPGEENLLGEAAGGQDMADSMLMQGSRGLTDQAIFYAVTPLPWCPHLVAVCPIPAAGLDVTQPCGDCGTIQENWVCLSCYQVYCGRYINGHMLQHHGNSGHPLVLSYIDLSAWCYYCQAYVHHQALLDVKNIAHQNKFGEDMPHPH

O=C(NO)c1ccc(CNc2cccc3cccnc23)cc1 [Compound 28, N-hydroxy-4-((quinolin-8-ylamino)methyl)benzamide]
% TGI ([1]; 25 mg/kg): 40.8% | % TGI ([1]; 50 mg/kg): 74.0% | Best Response ([2]; CR: complete regression): 2 × CR^a | % TGI ([2]; intraperitoneal): 80.0% | % TGI (MDA-MB-231 Breast; 25 mg/kg): 38.6% | % TGI (MDA-MB-231 Breast; 50 mg/kg): 56.4% | tolerability [3]: well tolerated | transfer latency time (elevated plus maze) [4]: significantly rescued scopolamine-mediated increase of transfer latency time | time spent in the correct quadrant (water maze) [5]: markedly reverse this effect | acetyl-a-tubuline expression [6]: increasing acetyl-a-tubuline expression in a dose-dependent manner | induction of apoptosis [7]: synergistically induced apoptosis | HDAC6-dynein binding (HDAC6-dynein binding): inhibited HDAC6-dynein binding | accumulation of polyubiquited proteins (polyubiquited proteins): induced accumulation of polyubiquited proteins | % TGI (HCT116 Colorectal; 50 mg/kg): 9.1% | % TGI (HCT116 Colorectal; 100 mg/kg): 44.4%
